Reference: patent US12251422B2, “Compositions and methods for treating neurological and other disorders” (Rush University Medical Center, priority 2018, dated 2025)

Key:
[1] = target: T1, interaction between TLR4 and MyD88 (Mus musculus, UniProt Q9QUK6); assay: MyD88 immunoprecipitation / TLR4 western blot in BV-2 microglial cells; type: cell-based; conditions: BV-2 cells, peptide preincubated 1 h, LPS for 1 h, serum-free
T1 construct: endogenous in cells; host or cells: BV-2 microglial cells
T1 sequence (Q9QUK6 26-835): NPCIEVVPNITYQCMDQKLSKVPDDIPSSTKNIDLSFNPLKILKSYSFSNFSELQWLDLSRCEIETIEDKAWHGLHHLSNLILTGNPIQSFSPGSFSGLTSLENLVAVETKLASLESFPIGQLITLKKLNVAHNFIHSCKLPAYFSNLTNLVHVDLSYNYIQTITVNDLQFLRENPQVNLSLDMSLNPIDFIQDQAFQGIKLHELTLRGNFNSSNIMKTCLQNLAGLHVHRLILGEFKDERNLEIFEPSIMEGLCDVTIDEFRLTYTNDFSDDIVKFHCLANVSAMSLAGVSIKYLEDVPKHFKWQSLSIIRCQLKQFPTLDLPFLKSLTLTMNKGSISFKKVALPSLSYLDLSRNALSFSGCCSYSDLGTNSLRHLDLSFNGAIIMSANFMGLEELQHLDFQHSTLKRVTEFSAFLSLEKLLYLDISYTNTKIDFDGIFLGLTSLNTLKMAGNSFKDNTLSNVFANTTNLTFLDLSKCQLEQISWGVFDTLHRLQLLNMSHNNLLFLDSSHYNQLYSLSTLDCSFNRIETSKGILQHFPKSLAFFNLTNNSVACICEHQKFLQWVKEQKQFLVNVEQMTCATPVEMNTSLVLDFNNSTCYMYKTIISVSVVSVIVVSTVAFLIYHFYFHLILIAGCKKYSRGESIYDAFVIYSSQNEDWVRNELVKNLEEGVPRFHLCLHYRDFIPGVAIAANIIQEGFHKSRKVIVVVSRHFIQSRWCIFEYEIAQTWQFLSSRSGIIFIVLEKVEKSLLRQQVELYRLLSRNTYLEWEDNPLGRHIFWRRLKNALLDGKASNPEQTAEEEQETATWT
Experimental: FIG. 3(A-L). Selective disruption of TLR2 and MyD88 interaction by wtTIDM. In silico analyses of interactions of wtTIDM with TLR1, TLR4, TLR5, TLR6, TLR7, and TLR9. A rigid body interaction analyses were performed in pydock in silico analysis tool. […] G) BV-2 microglial cells preincubated with WtTIDM and mTIDM peptides for 1 h were stimulated with 1 μM fibrillar Aβ1-42 under serum-free condition. After 1 h, cellular extracts were immunoprecipitated with anti-MyD88 antibody followed by western blot of immunoprecipitates for TLR2. As control, cellular extracts were immunoprecipitated with normal IgG. Input was also immunoblotted with TLR2 and MyD88. H) Bands were scanned and values (TLR2/Input) presented as relative to control (n=2 replicates/condition in 3 independent experiments). Results were analyzed by two-sample t-tests. I) BV-2 microglial cells preincubated with wtTIDM and mTIDM peptides for 1 h were stimulated with LPS under serum-free condition. After 1 h, cellular extracts were immunoprecipitated with anti-MyD88 antibody followed by western blot of immunoprecipitates for TLR4. As control, cellular extracts were immunoprecipitated with normal IgG. Input was also immunoblotted with TLR4 and My D88. […] Results were analyzed by two-sample t-tests. […] Results were analyzed by two-sample t-tests.

5×FAD Tg mice = assay: Tau phosphorylation in hippocampus of 5×FAD Tg mice; type: in vivo, mouse; conditions: 0.1 mg/kg body wt/2 d intranasal, 30 d
Experimental: FIG. 22 (A-B). Intranasal delivery of wtTIDM, but not mTIDM, peptide decreases the phosphorylation of tau in the hippocampus of Tg mice. […] B) Bands were scanned and values (P-Tau/Tau) presented as relative to non-Tg control. Results were analyzed by two-sample t-tests.
B6SJL-Tg (APPSwFlLon,PSEN1*M146L*L286V) 6799Vas/J transgenic (5×FAD or termed here as Tg) mice were purchased from Jackson Laboratories (Bar Harbor, ME). […] Briefly, TIDM peptides were dissolved in 5 μl normal saline, mice were hold in supine position and saline was delivered into one nostril using a pipetman.

## CC[C@H](C)[C@H](NC(=O)[C@H](CCCCN)NC(=O)[C@@H](NC(=O)[C@H](CCC(N)=O)NC(=O)[C@H](CCCNC(=N)N)NC(=O)[C@@H](N)CC(=O)O)[C@@H](C)CC)C(=O)N[C@@H](Cc1c[nH]c2ccccc12)C(=O)N[C@@H](Cc1ccccc1)C(=O)N[C@@H](CCC(N)=O)C(=O)N[C@@H](CC(N)=O)C(=O)N[C@@H](CCCNC(=N)N)C(=O)N[C@@H](CCCNC(=N)N)C(=O)N[C@@H](CCSC)C(=O)N[C@@H](CCCCN)C(=O)N[C@@H](Cc1c[nH]c2ccccc12)C(=O)N[C@@H](CCCCN)C(=O)N[C@@H](CCCCN)C(=O)N1CCC[C@H]1C(=O)NCC(=O)N[C@@H](C)C(=O)N[C@@H](Cc1c[nH]cn1)C(=O)N[C@@H](CCC(N)=O)C(=O)N[C@@H](CCCCN)C(=O)O [wtTIDM, drqikiwfqnrrmkwkkPGAHQK]
[1]
  effect on LPS-increased interaction between TLR4 and MyD88: had no effect
5×FAD Tg mice
  phospho-tau in the hippocampus: suppression
  total level of tau protein: without affecting
